The source of these data is patent US20260242394A1, “USP2 INHIBITORS AND METHODS OF USING THE SAME FOR THE TREATMENT OF DISEASES” (ICAHN SCHOOL OF MEDICINE AT MOUNT SINAI, priority 2023, published 2026).

In general, IC50 refers to the concentration that inhibits the measured activity by half. A lower IC50 goes with greater potency in that assay. In general, bioavailability refers to the share of a dose that reaches the circulation, judged against a reference dose that is usually intravenous. Read a high bioavailability as good availability.

In data set [1] the test system is P53 and P21 protein levels in H460 and A375 cells. Briefly: Immunoblotting of p53 and p21 protein levels in H460 and A375 cells. Type of data set: cell-based. Particulars: FIGS. 12-13. The method, then: Example 220. (FIG. 12) Screening of selected USP2 inhibitors in H460 cells using immunoblotting experiments. The effect of selected USP2 inhibitors (10 μM, 48 h treatment time) on modulating the protein levels of p53 and p21 in H460 cells. Example 221. (FIG. 13) Screening of selected USP2 inhibitors in A375 cells using immunoblotting experiments. The effect of selected USP2 inhibitors with indicated concentration after indicated treatment time on modulating the protein levels of p53 and p21 in A375 cells. Whole cell extracts were prepared with Flag lysis buffer (50 mM Tris-HCl, pH 8.0, 137 mM NaCl, 1 mM NaF, 1 mM NaVO3, 1% Triton X-100, 0.2% sarkosyl, 0.5 mM DTT, 0.5 mM PMSF and 10% glycerol) containing fresh-added protease inhibitors. For cytosolic and nuclear fractions, the cell pellet was firstly incubated with Harvest buffer (10 mM Hepes (pH 8.0), 50 mM NaCl, 0.5 M sucrose, 0.1 mM EDTA, and 0.25% Triton X-100) containing fresh-added protease inhibitors for 5 min on ice followed by centrifugation @120 g for 10 min. The supernatant was cytosolic fraction. After wash twice with buffer A (10 mM Hepes (pH 8.0), 10 mM KCl, 0.1 mM EDTA, and 0.1 mM EGTA), nuclear pellet was lyzed with BC100 (50 mM Tris-HCl, pH 8.0, 100 mM NaCl, 0.2% Triton X-100, and 10% glycerol) containing fresh-added protease inhibitors for 30 min on ice to get the nuclear fraction. Protein concentration was measured with the protein assay dye reagent (Bio-Rad, Cat #5000006) as manufacturer's user guide. 20-60 μg total proteins were loaded to and separated in SDS-PAGE precast gels, then transferred to nitrocellulose membrane. After incubation with primary antibodies for overnight at 4° C., HRP-conjugated secondary antibodies were used, and western blot signals were detected on autoradiographic films after incubating with ECL substrate.

For a further data set, the system named is H460 and A375 cells. Briefly: Cell viability assays in H460 and A375 cells. Type of data set: cell-based. Particulars: FIGS. 9-11. The method, then:
Example 217. (FIG. 9) Screening of selected USP2 inhibitors using cell viability assays. H460 cells were treated with […] of indicated compounds for 48 h, cell viabilities were indicated by the images of cell morphology. Example 218. (FIG. 10) Screening of selected USP2 inhibitors using cell viability assays. A375 cells were treated with indicated concentration of indicated compounds for 48 h, cell viabilities were indicated by the images of cell morphology. Example 219. (FIG. 11) GI50 determination of selected compounds in A375 cells after 48 hours treatment. 0.3 million of H460 cells were seeded in 6-well plate. Next day, cells were treated with 10 uM of drugs for 48 h. DMSO served as negative control. Images of cell morphology were obtained with Olympus IX51 microscope, indicating the cell viability upon treatment.

In data set [2] the test system is ACE2 and cyclin D1 protein levels in HepG2 cells. Nature of the data set: Immunoblotting of ACE2 and cyclin D1 protein levels in HepG2 cells.
Protocol: (FIG. 5) Screening of selected USP2 inhibitors in HepG2 cells using immunoblotting experiments. (a,b) The effect of selected USP2 inhibitors (5 M) on modulating the protein levels of ACE2 and cyclin D1 in HepG2 cells. […] (d) The effect of selected USP2 inhibitors (1 and 5 μM) on modulating the protein levels of ACE2 and cyclin D1 in HepG2 cells. (e-f) The effect of selected USP2 inhibitors (5 M) on modulating the protein levels of ACE2 and cyclin D1 in HepG2 cells.
In brief, cells were lysed in protease and phosphatase inhibitor-contained EBC buffer (50 mM Tris-HCl, pH 7.4; 120 mM NaCl; 0.5% NP-40). Protein concentrations were determined, and an equal amount of protein samples were harvested, followed by adding 5×SDS loading buffer (312 mM Tris-HCl, 10% SDS, 25 mM P-mercaptoethanol, 50% glycerol, and 0.05% bromophenol blue) and boiling for 10 min. SDS-PAGE electrophoresis, wet electroblotting, milk blocking, primary and secondary antibody incubation, and ECL development were conducted sequentially.
The target in another data set is T1, USP2 (Homo sapiens, UniProt O75604).
T1 sequence (O75604 259-605 limits assumed): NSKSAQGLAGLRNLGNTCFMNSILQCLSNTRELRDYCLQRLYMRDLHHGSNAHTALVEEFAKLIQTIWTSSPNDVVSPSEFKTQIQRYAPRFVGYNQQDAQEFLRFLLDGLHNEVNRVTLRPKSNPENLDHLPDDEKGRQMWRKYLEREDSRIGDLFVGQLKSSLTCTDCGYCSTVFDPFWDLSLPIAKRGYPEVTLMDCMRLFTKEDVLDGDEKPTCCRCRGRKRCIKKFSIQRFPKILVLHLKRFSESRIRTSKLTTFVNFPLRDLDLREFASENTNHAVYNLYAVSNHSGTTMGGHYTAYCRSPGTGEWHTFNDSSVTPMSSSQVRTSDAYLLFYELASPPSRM
Briefly: biochemical.

A further data set can be described thus: In vivo mouse PK studies. Particulars: plasma, po, 10 mg/kg. The method, then:
Example 222. (FIG. 14) PK results of selected compounds. (a) Plasma concentrations of MS102 and ML346 over 24 h after i.p. injection at 50 mg/kg dose. (b) Plasma concentrations of MS102 over 24 h using different administration routes: […]. (50 mg/kg) by. (c) Plasma concentrations of […]161-180 and XH153-182 over 8 h at 5 mg/kg dose by i.p. injection. (d) Plasma concentrations of XH161-172 over 24 h using different administration routes: […]) Plasma concentrations of XH161-180 over 24 h using different administration routes: […]. (10 mg/kg). Pharmacokinetic studies for ML364, MS102, MS1172, MS1180 and XH153-182 were performed by Sai Life Sciences Limited (India). Experiments were design with 3 mice/time point/compound. Animals were administered intraperitoneally, intravenously as slow bolus injection through tail vein, or through oral route with solution formulation of indicated compound at indicated dose. […] Blood samples (approximately 60 μL) were collected under light isoflurane anesthesia (Surgivet®) from a set of three mice at different time points. Immediately after blood collection, plasma was harvested by centrifugation at 4000 rpm, 10 min at 4° C., and samples were stored at -70±10° C. until bioanalysis. All samples were processed for analysis by protein precipitation method and analyzed with the fit-for-purpose LC-MS/MS method (LLOQ=1.01 ng/mL). […]

Protocol for USP2: (FIG. 4) IC50 determination of selected USP2 inhibitors using USP2 enzymatic activity assays.
The USP2 (E-504-050, R & D Systems) and SARS-CoV-2 PLpro (100735, BPS Bioscience) deubiquitinase activity was determined with the DUB Activity Assay Kit (701490, Cayman), slightly modified based on the manufacturer's instructions. Briefly, the inhibitors were diluted as indicated with 40 μL of 1×DUB assay buffer, followed by adding 5 μL of DUB proteins. The plate was covered and incubated with the DUB-inhibitor mix at 37° C. for 30 minutes. Then, the plate cover was removed, and the reactions were initiated by quickly adding 5 μL of Ubiquitin-AMC to all wells being used. The fluorescence was read in an Infinite M1000 microplate reader (Tecan), with an excitation wavelength of 360 nm and emission wavelength of 460 nm. The DUB activity was calculated using the formulation provided by the kit.

Take `O=c1c2ccc(F)cc2nc(C(F)(F)F)n1-c1nc(-c2ccc(Br)cc2)cs1` [XH188-135p1, 3-(4-(4-Bromophenyl)thiazol-2-yl)-7-fluoro-2-(trifluoromethyl)quinazolin-4(3H)-one]: the “tumor suppressors P53 and P21 protein levels” value in data set [1] is on record as “elevating”. Besides, the antiproliferation effect entry with H460 and A375 cells is recorded as “antiproliferation effect”.

Consider `O=C(Nc1nc(-c2ccc(Br)cc2)cs1)c1ccc(F)cc1NC(=O)C(F)(F)F` [XH188-135p2, N-(4-(4-Bromophenyl)thiazol-2-yl)-4-fluoro-2-(2,2,2-trifluoroacetamido)benzamide], for which the “tumor suppressors P53 and P21 protein levels” value in data set [1] is given as “elevating”. In addition, the antiproliferation effect entry in the data set on H460 and A375 cells is listed as “antiproliferation effect”.

Take `Cc1ccc(S(=O)(=O)Nc2cc(F)ccc2C(=O)Nc2nccs2)cc1` [XH153-182, 4-fluoro-2-((4-methylphenyl)sulfonamido)-N-(thiazol-2-yl)benzamide]: in data set [1], the “tumor suppressors P53 and P21 protein levels” value is given as “elevating”. For the same compound, the antiproliferation effect result with H460 and A375 cells was “antiproliferation effect”.

`Cc1ccc(S(=O)(=O)Nc2ccc(C(F)(F)F)cc2C(=O)Nc2nc(-c3ccc(Br)cc3)cs2)cc1` [XH161-102 (MS102), N-(4-(4-bromophenyl)thiazol-2-yl)-2-((4-methylphenyl)sulfonamido)-5-(trifluoromethyl)benzamide]: the ACE2 protein level entry in data set [2] was “dose-dependent reduce”. Also, the IC50 against USP2 came to 5 µM.

The compound `CC(C)S(=O)(=O)Nc1cc(F)ccc1C(=O)Nc1nc(-c2ccc(Br)cc2)cs1` [MS1172, N-(4-(4-bromophenyl)thiazol-2-yl)-4-fluoro-2-((1-methylethyl)sulfonamido)benzamide] came in with a bioavailability in “In vivo mouse PK studies” of 100%. Also, the “tumor suppressors P53 and P21 protein levels” value in data set [1] is “elevating”. Besides, the antiproliferation effect entry with H460 and A375 cells is reported as “antiproliferation effect”.

In turn, `O=C(Nc1nc(-c2ccc(Br)cc2)cs1)c1ccc(F)cc1NS(=O)(=O)C1CCCCC1` [MS1180, N-(4-(4-bromophenyl)thiazol-2-yl)-2-(cyclohexanesulfonamido)-4-fluorobenzamide] showed a bioavailability in “In vivo mouse PK studies” of 95%. Besides, the “tumor suppressors P53 and P21 protein levels” value in data set [1] is reported as “elevating”. Further, in the data set on H460 and A375 cells, the antiproliferation effect entry is given as “antiproliferation effect”.

On to `O=C(Nc1nc(-c2ccc(F)cc2)cs1)c1ccc(F)cc1NC(=O)C(F)(F)F` [XH198-68p2, 4-Fluoro-N-(4-(4-fluorophenyl)thiazol-2-yl)-2-(2,2,2-trifluoroacetamido)benzamide], for which the “tumor suppressors P53 and P21 protein levels” value in data set [1] is “elevating”. Moreover, the antiproliferation effect entry with H460 and A375 cells was “antiproliferation effect”.

On to `O=C(Nc1cc(F)ccc1C(=O)Nc1nc(-c2ccc(F)cc2)cs1)c1ccc(C(F)(F)F)cc1` [XH208-93p2, 4-Fluoro-N-(4-(4-fluorophenyl)thiazol-2-yl)-2-(4-(trifluoromethyl)benzamido)benzamide], for which the “tumor suppressors P53 and P21 protein levels” value in data set [1] was “elevating”. Further, the antiproliferation effect entry in the data set with H460 and A375 cells is on record as “antiproliferation effect”.
